Reference: patent publication US10723705B2, “Heterocyclic compounds and uses thereof” (Incyte Corporation, priority 2015, dated 2020)
pIC50: −log10 of the molar value. Where two headings read alike, the source gives them in different places.

Target: Human recombinant Histone Deacetylase 8 (HDAC8) (Homo sapiens (Human), UniProt Q9BY41)
Assay: HDAC8 Enzymatic Assay (HDAC-Glo I/II luminescence)
Assay type: biochemical
Procedure, shortened: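 Human recombinant HDAC8 (1.5 nM final) preincubated with compound for 30 min, then reacted with 50 μM Boc-GAK(Ac)-aminoluciferin plus trypsin-containing developer for 15 min at room temperature, pH 8.0, 0.5% DMSO. Luminescence read-out; IC50 from percent control activity versus log concentration.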

[1] = class symbols, Table 14, read-out: HDAC8 IC50

Sequence of Human recombinant Histone Deacetylase 8 (HDAC8) (Q9BY41 whole entry): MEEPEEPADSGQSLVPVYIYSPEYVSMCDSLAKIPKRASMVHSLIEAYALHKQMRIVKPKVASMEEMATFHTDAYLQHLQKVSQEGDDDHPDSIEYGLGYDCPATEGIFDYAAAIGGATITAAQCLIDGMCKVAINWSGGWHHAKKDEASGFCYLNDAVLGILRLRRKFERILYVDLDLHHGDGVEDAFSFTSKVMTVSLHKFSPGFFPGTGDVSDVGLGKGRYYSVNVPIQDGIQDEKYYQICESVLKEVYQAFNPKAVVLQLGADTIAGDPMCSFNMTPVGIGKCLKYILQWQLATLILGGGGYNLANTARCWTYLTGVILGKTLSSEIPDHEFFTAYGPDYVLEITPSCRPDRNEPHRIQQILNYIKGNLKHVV

pIC50 [1]	pIC50 (HDAC8, read-out: IC50)	Compound
6.70 to 7.30	–	O=C(NO)C(Cc1ccccc1)n1nc2c(Cl)nccc2c1I (stereo not shown) [Compound I-0125, 2-(7-chloro-3-iodo-2H-pyrazolo[3,4-c]pyridin-2-yl)-N-hydroxy-3-phenylpropanamide]
6.70 to 7.30	7.00	O=C(NO)C(Cc1ccccc1)n1nc(C#CC2CC2)c2ccnc(Cl)c21 (stereo not shown) [Compound I-0126, 2-[7-Chloro-3-(cyclopropylethynyl)-1H-pyrazolo[3,4-c]pyridin-1-yl]-N-hydroxy-3-phenylpropanamide]
≥ 7.30	8.24	O=C(NO)C(Cc1ccccc1)n1nc2c(Cl)nccc2c1C#CC1CC1 (stereo not shown) [Compound I-0127, 2-[7-Chloro-3-(cyclopropylethynyl)-2H-pyrazolo[3,4-c]pyridin-2-yl]-N-hydroxy-3-phenylpropanamide]
≥ 7.30	8.37	Cn1nccc1-c1nccc2c(C#CC3CC3)n(C(Cc3ccccc3)C(=O)NO)nc12 (stereo not shown) [Compound I-0128, 2-[3-(Cyclopropylethynyl)-7-(1-methyl-1H-pyrazol-5-yl)-2H-pyrazolo[3,4-c]pyridin-2-yl]-N-hydroxy-3-phenylpropanamide]
6.30 to 6.70	–	O=C(NO)C(Cc1ccccc1)n1cc2ccnc(Cl)c2n1 (stereo not shown) [Compound I-0129, 2-(7-chloro-2H-pyrazolo[3,4-c]pyridin-2-yl)-N-hydroxy-3-phenylpropanamide]
< 6.30	–	N#Cc1cccc(-c2cnc3c(cnn3C(Cc3ccccc3)C(=O)NO)c2)c1 (stereo not shown) [Compound I-0130, 2-(5-(3-cyanophenyl)-1H-pyrazolo[3,4-b]pyridin-1-yl)-N-hydroxy-3-phenylpropanamide]
6.30 to 6.70	–	NC(=O)c1cccc(-c2cnc3c(cnn3C(Cc3ccccc3)C(=O)NO)c2)c1 (stereo not shown) [Compound I-0131, 3-(1-(1-(hydroxyamino)-1-oxo-3-phenylpropan-2-yl)-1H-pyrazolo[3,4-b]pyridin-5-yl)benzamide]
6.30 to 6.70	–	O=C(NO)C(Cc1ccccc1)n1ncc2cc(-c3cccnc3)cnc21 (stereo not shown) [Compound I-0132, N-hydroxy-3-phenyl-2-(5-(pyridin-3-yl)-1H-pyrazolo[3,4-b]pyridin-1-yl)propanamide]
< 6.30	–	O=C(NO)C(Cc1ccccc1)n1ncc2cc(-c3ccncc3)cnc21 (stereo not shown) [Compound I-0133, N-hydroxy-3-phenyl-2-(5-(pyridin-4-yl)-1H-pyrazolo[3,4-b]pyridin-1-yl)propanamide]
6.30 to 6.70	6.59	O=C(NO)C(Cc1ccccc1)c1cnc2c(Cl)cccn12 (stereo not shown) [Compound I-0134, 2-(8-Chloroimidazo[1,2-a]pyridin-3-yl)-N-hydroxy-3-phenylpropanamide]
6.30 to 6.70	–	O=C(NO)C(Cc1ccccc1)n1nc2c(Cl)cccc2c1I (stereo not shown) [Compound I-0135, 2-(7-chloro-3-iodo-2H-indazol-2-yl)-N-hydroxy-3-phenylpropanamide]
≥ 7.30	–	O=C(NO)C(Cc1ccccc1)n1nc2c(Cl)cccc2c1C#CC1CC1 (stereo not shown) [Compound I-0136, 2-(7-chloro-3-(cyclopropylethynyl)-2H-indazol-2-yl)-N-hydroxy-3-phenylpropanamide]
≥ 7.30	–	Cn1nccc1-c1cccc2c(C#CC3CC3)n(C(Cc3ccccc3)C(=O)NO)nc12 (stereo not shown) [Compound I-0137, 2-(3-(cyclopropylethynyl)-7-(1-methyl-1H-pyrazol-5-yl)-2H-indazol-2-yl)-N-hydroxy-3-phenylpropanamide]
≥ 7.30	–	NC(=O)c1ccc(-c2cccc3c(C#CC4CC4)n(C(Cc4ccccc4)C(=O)NO)nc23)cc1 (stereo not shown) [Compound I-0138, 4-(3-(cyclopropylethynyl)-2-(1-(hydroxyamino)-1-oxo-3-phenylpropan-2-yl)-2H-indazol-7-yl)benzamide]
≥ 7.30	–	CN(C)C(=O)c1ccc(-c2cccc3c(C#CC4CC4)n(C(Cc4ccccc4)C(=O)NO)nc23)cc1 (stereo not shown) [Compound I-0139, 4-(3-(cyclopropylethynyl)-2-(1-(hydroxyamino)-1-oxo-3-phenylpropan-2-yl)-2H-indazol-7-yl)-N,N-dimethylbenzamide]
